The values below come from paper PMC10344917, “Affinity and cooperativity modulate ternary complex formation to drive targeted protein degradation” (Nature Communications, 2023).

Holding throughout (format): cell-based
One experiment has as its target T1, SMARCA2-NanoLuc (Homo sapiens, UniProt P51531).
T1 construct: expressed in transfected cells; host or cells: HEK293
Briefly: NanoBRET target engagement assay, live and permeabilized HEK293 cells (SMARCA2). As to conditions: SMARCA2 NanoBRET TE. As to the method:
We employed a NanoBRET-based target engagement (TE) assay as reported earlier^7 for evaluating PROTACs relative permeability. In summary, live and permeabilized HEK293 cells with SMARCA2 or BRD4-NanoLuc were used for measuring IC50 values of different PROTACs. The relative shift in the IC50 was evaluated as relative binding affinity (RBA) by taking the ratio of IC50 values of live and permeabilized cells. Availability index (AI), which is a surrogate for permeability can be calculated by taking a ratio of RBA of compounds to permeable benchmark molecules. We used SMARCA bromodomain binding ligand^8 for SMARCA2 PROTACs and JQ1^9, 10 for BRD4 PROTACs as benchmark molecules.
Relative Binding Affinity (RBA) = Live-cell TE IC50 / Permeabilized-cell TE IC50
Availability Index (AI) = RBAtest cmpd / RBApermeable benchmark
Availability Index (AI) greater than one is indicative of reduced permeability compared to the benchmark.
(Bioluminescence resonance energy transfer reports proximity on the nanometre scale.)

The target in experiment [1] is T2, SMARCA2 (Homo sapiens, UniProt P51531).
T2 construct: endogenous in cells; host or cells: A375
T2 sequence (P51531 whole entry): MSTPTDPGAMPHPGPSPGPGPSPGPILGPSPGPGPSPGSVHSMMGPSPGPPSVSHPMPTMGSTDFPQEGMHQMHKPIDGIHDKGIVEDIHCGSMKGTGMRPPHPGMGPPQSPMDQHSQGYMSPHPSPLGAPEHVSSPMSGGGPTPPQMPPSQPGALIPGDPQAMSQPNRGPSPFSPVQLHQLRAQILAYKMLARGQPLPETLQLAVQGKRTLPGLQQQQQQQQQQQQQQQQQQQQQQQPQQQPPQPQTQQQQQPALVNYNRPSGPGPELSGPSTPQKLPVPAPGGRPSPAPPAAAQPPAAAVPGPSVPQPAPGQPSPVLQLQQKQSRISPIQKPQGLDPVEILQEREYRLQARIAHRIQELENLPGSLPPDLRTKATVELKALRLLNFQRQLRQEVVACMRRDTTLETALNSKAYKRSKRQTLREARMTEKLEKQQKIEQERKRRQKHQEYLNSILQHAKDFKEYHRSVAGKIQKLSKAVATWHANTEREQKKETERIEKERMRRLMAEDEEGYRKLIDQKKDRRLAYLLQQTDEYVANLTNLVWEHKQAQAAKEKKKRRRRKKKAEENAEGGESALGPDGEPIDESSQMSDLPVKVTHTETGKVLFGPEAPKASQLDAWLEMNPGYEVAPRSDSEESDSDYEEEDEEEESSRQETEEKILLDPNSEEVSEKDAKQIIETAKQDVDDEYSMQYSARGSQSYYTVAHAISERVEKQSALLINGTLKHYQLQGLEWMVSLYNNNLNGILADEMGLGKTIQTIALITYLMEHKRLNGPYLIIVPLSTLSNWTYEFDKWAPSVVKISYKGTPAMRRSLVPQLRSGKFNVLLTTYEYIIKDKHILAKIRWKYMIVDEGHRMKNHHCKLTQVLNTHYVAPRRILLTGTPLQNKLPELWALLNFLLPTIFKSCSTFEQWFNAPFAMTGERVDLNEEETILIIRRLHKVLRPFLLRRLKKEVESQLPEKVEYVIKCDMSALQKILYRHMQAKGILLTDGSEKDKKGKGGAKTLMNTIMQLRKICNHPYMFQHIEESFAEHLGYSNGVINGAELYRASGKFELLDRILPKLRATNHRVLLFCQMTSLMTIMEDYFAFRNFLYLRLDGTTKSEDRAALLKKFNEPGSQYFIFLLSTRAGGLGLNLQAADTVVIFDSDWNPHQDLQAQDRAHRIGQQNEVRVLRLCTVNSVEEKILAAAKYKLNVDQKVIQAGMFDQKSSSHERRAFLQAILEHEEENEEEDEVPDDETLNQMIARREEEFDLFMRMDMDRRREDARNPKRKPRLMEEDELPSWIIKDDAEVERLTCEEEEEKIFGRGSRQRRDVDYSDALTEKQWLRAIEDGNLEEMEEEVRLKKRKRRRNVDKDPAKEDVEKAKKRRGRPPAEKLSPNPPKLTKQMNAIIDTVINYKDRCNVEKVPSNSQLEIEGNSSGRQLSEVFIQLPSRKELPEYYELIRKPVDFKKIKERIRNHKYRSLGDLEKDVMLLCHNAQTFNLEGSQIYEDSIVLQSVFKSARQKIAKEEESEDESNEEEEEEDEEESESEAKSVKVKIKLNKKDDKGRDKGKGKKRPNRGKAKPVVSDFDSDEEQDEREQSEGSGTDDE
Briefly: SMARCA2 degradation, MSD assay, dose response. Also noted: key to AUC (area under the dose-response curve): sum of trapezoids of POC vs dose points, h = 1. As to conditions: for Dmax: A-375, SMARCA2 degraded; for Dmax / DC50: MSD assay, 2 h timepoint; for Dmax / AUC (area under the dose-response curve) / DC50: A375 cells; for AUC (area under the dose-response curve): SMARCA2 MSD assay, 2 h; for DC50: SMARCA2 degradation. As to the method:
A375 cells were treated with SMARCA2 or BRD4 degraders for 2 h (4 h for BRD4) and generated lysates. SMARCA2 or BRD4 protein was measured with a variation of a sandwich ELISA that was assembled from commercially available antibodies as well as reagents and instrumentation procured from Meso Scale Discovery (MSD). Degradation parameter, DC50, is not suitable for PROTACs that induce partial/incomplete DR curves at a fixed time point; maximum drop in target protein level (Dmax) >>0. Conversely, the area under the curve (AUC) can be calculated as a degradation activity parameter for any DR curve, and it encompasses both the degradation potency (i.e., DC50) and efficacy (i.e., Dmax) of PROTACs.
A 1:3 compound dose-response titration was diluted in growth media (1:20), added to appropriate wells of a cell culture plate (1:10) and then assay plates were incubated at 37 °C, 5% CO2.
Plates were washed with 300 µL per well MSD wash buffer (MSD R61TX-1) between each step. Following the last incubation, plates were washed with MSD wash buffer then 150 µL of MSD read buffer (MSD R92TC-2) was added to each well. Plates were immediately read on a MSD plate reader (MSD Sector Imager 6000).
MSD electrochemiluminescence signals were subtracted by the average background signal from wells with lysis buffer alone. Normalized MSD values (POC) for individual compound treated wells were acquired by dividing background-subtracted assay signal by signal from vehicle control wells (cells + 0.1% DMSO) and multiplying by 100. This POC data was graphed using a nonlinear regression curve fit xy analysis and a log(inhibitor) vs response —variable slope (four parameter) model for dose response curves (Graphpad Prism 9, San Diego, CA, USA). To calculate area under the curve, all points on the curve were connected and vertical lines were drawn from each point down to y = 0, generating a series of trapezoids. The area of each trapezoid was determined using the equation A = (1/2)(h)(b1 + b2), where h = 1 (distance between points), b1 = POC of the first point and b2 = POC of the second point. The sum of all trapezoids provides an approximate area under the curve (AUC). For half-life (t1/2) determination in time course studies, a one-phase decay model was used for curve fitting and the time at which the curve crossed 50 POC was determined through interpolation (Graphpad Prism 9, San Diego, CA, USA).

Experiment [2] has as its target T2, SMARCA2. Briefly: SMARCA2 degradation time course in A375 cells (MSD). As to conditions: single concentration at or near maximal activity. An excerpt: This characteristic has been described as cooperativity (α > 1) and likely results from favorable PPIs present in the ternary complex. […] To measure the rate of protein degradation, we treated A375 cells with a single concentration of each PROTAC and measured the decrease in target abundance over time as shown in Figs. 4b and5b.
MSD electrochemiluminescence signals were subtracted by the average background signal from wells with lysis buffer alone. Normalized MSD values (POC) for individual compound treated wells were acquired by dividing background-subtracted assay signal by signal from vehicle control wells (cells + 0.1% DMSO) and multiplying by 100. This POC data was graphed using a nonlinear regression curve fit xy analysis and a log(inhibitor) vs response —variable slope (four parameter) model for dose response curves (Graphpad Prism 9, San Diego, CA, USA). To calculate area under the curve, all points on the curve were connected and vertical lines were drawn from each point down to y = 0, generating a series of trapezoids. The area of each trapezoid was determined using the equation A = (1/2)(h)(b1 + b2), where h = 1 (distance between points), b1 = POC of the first point and b2 = POC of the second point. The sum of all trapezoids provides an approximate area under the curve (AUC). For half-life (t1/2) determination in time course studies, a one-phase decay model was used for curve fitting and the time at which the curve crossed 50 POC was determined through interpolation (Graphpad Prism 9, San Diego, CA, USA). Additionally initial rate of degradation was determined by multiplying 100 with rate constant (τ = 0.693/t1/2).

Setting [3] is: live HEK293 cells, read-out: Live-Cell TE IC50.
Where [4] appears, read: permeabilized HEK293 cells, read-out: Permeabilized-Cell TE IC50.

pIC50: −log10 of the molar value. Read-outs that look alike come from different tables or passages of the source.

T1 sequence (P51531 whole entry): as above

As a reminder, the pIC50 is −log10 of the IC50, conventionally taken in molar units. One may read the Dmax as the greatest extent of degradation seen. By DC50 is commonly meant the concentration giving 50% degradation. As to `Cc1ncsc1-c1ccc([C@H](C)NC(=O)[C@@H]2C[C@@H](O)CN2C(=O)[C@@H](NC(=O)CCc2ccnc(N3CCN(c4cc(-c5ccccc5O)nnc4N)CC3)c2)C(C)(C)C)cc1` [Compound 8, (2S,4R)-1-((S)-2-(3-(2-(4-(3-Amino-6-(2-hydroxyphenyl)pyridazin-4-yl)piperazin-1-yl)pyridin-4-yl)propanamido)-3,3-dimethylbutanoyl)-4-hydroxy-N-((S)-1-(4-(4-methylthiazol-5-yl)phenyl)ethyl)pyrrolidine-2-carboxamide], the pIC50 on SMARCA2-NanoLuc (setting [3]) was 6.22. Also, at SMARCA2-NanoLuc (setting [4]), the pIC50 was 7.30. At SMARCA2 [1], the maximal degradation (Dmax) was 80%, the “AUC (area under the dose-response curve)” value came to 75 and the DC50 came out at 379 nM. In addition, the “Initial Degradation Rate” value on SMARCA2 [2] was found to be 1.34 %/min.
As for `Cc1ncsc1-c1ccc([C@H](C)NC(=O)[C@@H]2C[C@@H](O)CN2C(=O)[C@@H](NC(=O)c2cccc(N3CCN(c4cc(-c5ccccc5O)nnc4N)CC3)c2)C(C)(C)C)cc1` [Compound 4, (2S,4R)-1-((S)-2-(3-(4-(3-Amino-6-(2-hydroxyphenyl)pyridazin-4-yl)piperazin-1-yl)benzamido)-3,3-dimethylbutanoyl)-4-hydroxy-N-((S)-1-(4-(4-methylthiazol-5-yl)phenyl)ethyl)pyrrolidine-2-carboxamide], on SMARCA2-NanoLuc (setting [3]), the pIC50 was 6.09. Further, at SMARCA2-NanoLuc (setting [4]), the pIC50 is 6.12. Further, on SMARCA2 [1], the Dmax came to 96%, the “AUC (area under the dose-response curve)” value turned out to be 26 and the DC50 worked out at 99 nM. The “Initial Degradation Rate” value on SMARCA2 [2] amounted to 2.06 %/min.
As for `Cc1ncsc1-c1ccc([C@H](C)NC(=O)[C@@H]2C[C@@H](O)CN2C(=O)[C@@H](NC(=O)c2ccnc(N3CCN(c4cnnc(-c5ccccc5O)c4)CC3)c2)C(C)(C)C)cc1` [Compound 10, N-((S)-1-((2S,4R)-4-Hydroxy-2-(((S)-1-(4-(4-methylthiazol-5-yl)phenyl)ethyl)carbamoyl)pyrrolidin-1-yl)-3,3-dimethyl-1-oxobutan-2-yl)-2-(4-(6-(2-hydroxyphenyl)pyridazin-4-yl)piperazin-1-yl)isonicotinamide], the negative logarithm of the IC50 (pIC50) at SMARCA2-NanoLuc (setting [3]) is 5.63. At SMARCA2-NanoLuc (setting [4]), the pIC50 is 5.30. Also, on SMARCA2 [1] (2 h MSD assay), the SMARCA2 degradation was ~ 30%. On SMARCA2 [1], the greatest degradation seen (Dmax) amounted to 65%, the “AUC (area under the dose-response curve)” value is 100 and the DC50 came to 469 nM. Moreover, at SMARCA2 [2], the “Initial Degradation Rate” value is recorded as 0.56 %/min.
Consider `Cc1ncsc1-c1ccc([C@H](C)NC(=O)[C@@H]2C[C@@H](O)CN2C(=O)[C@@H](NC(=O)c2cccc(N3CCN(c4cc(-c5ccccc5O)nnc4N)CC3)n2)C(C)(C)C)cc1` [Compound 2, 6-(4-(3-Amino-6-(2-hydroxyphenyl)pyridazin-4-yl)piperazin-1-yl)-N-((S)-1-((2S,4R)-4-hydroxy-2-(((S)-1-(4-(4-methylthiazol-5-yl)phenyl)ethyl)carbamoyl)pyrrolidin-1-yl)-3,3-dimethyl-1-oxobutan-2-yl)picolinamide], for which, on SMARCA2-NanoLuc (setting [3]), the pIC50 is 6.40. On SMARCA2-NanoLuc (setting [4]), the pIC50 was 6.70. In addition, on SMARCA2 [1], the Dmax is 95%, the “AUC (area under the dose-response curve)” value is given as 28 and half-maximal degradation (DC50) was put at 95 nM. Moreover, the “Initial Degradation Rate” value at SMARCA2 [2] is given as 2.02 %/min.
Take `Cc1ncsc1-c1ccc([C@H](C)NC(=O)[C@@H]2C[C@@H](O)CN2C(=O)[C@@H](NC(=O)CN2CCN(c3cc(-c4ccccc4O)nnc3N)CC2)C(C)(C)C)cc1` [Compound 6, (2S,4R)-1-((S)-2-(2-(4-(3-Amino-6-(2-hydroxyphenyl)pyridazin-4-yl)piperazin-1-yl)acetamido)-3,3-dimethylbutanoyl)-4-hydroxy-N-((S)-1-(4-(4-methylthiazol-5-yl)phenyl)ethyl)pyrrolidine-2-carboxamide, reference compound]: the negative-log IC50 (pIC50) on SMARCA2-NanoLuc (setting [3]) is 5.85. In addition, the pIC50 at SMARCA2-NanoLuc (setting [4]) is 7.05. Besides, on SMARCA2 [1], the Dmax is 96%, the “AUC (area under the dose-response curve)” value stood at 26 and the DC50 was found to be 85 nM. The “Initial Degradation Rate” value on SMARCA2 [2] is recorded as 3.5 %/min.
In the case of `Cc1ncsc1-c1ccc([C@H](C)NC(=O)[C@@H]2C[C@@H](O)CN2C(=O)[C@@H](NC(=O)c2ccnc(N3CCN(c4cc(-c5ccccc5O)nnc4N)CC3)c2)C(C)(C)C)cc1` [Compound 1, 2-(4-(3-Amino-6-(2-hydroxyphenyl)pyridazin-4-yl)piperazin-1-yl)-N-((S)-1-((2S,4R)-4-hydroxy-2-(((S)-1-(4-(4-methylthiazol-5-yl)phenyl)ethyl)carbamoyl)pyrrolidin-1-yl)-3,3-dimethyl-1-oxobutan-2-yl)isonicotinamide], the pIC50 at SMARCA2-NanoLuc (setting [3]) was 6.70. Besides, at SMARCA2-NanoLuc (setting [4]), the pIC50 was 6.82. For the same compound, on SMARCA2 [1], the Dmax came out at 98%, the “AUC (area under the dose-response curve)” value came to 13 and the half-maximal degradation concentration (DC50) amounted to 28 nM. On SMARCA2 [2], the “Initial Degradation Rate” value was 1.9 %/min.
As for `Cc1ncsc1-c1ccc([C@H](C)NC(=O)[C@@H]2C[C@@H](O)CN2C(=O)[C@@H](NC(=O)c2csc(N3CCN(c4cc(-c5ccccc5O)nnc4N)CC3)n2)C(C)(C)C)cc1` [Compound 5, 2-(4-(3-Amino-6-(2-hydroxyphenyl)pyridazin-4-yl)piperazin-1-yl)-N-((S)-1-((2S,4R)-4-hydroxy-2-(((S)-1-(4-(4-methylthiazol-5-yl)phenyl)ethyl)carbamoyl)pyrrolidin-1-yl)-3,3-dimethyl-1-oxobutan-2-yl)thiazole-4-carboxamide], on SMARCA2-NanoLuc (setting [3]), the pIC50 was 5.90. Moreover, on SMARCA2-NanoLuc (setting [4]), the negative-log IC50 (pIC50) was 6.40. On SMARCA2 [1], the Dmax came to 96%, the “AUC (area under the dose-response curve)” value is given as 28 and half-maximal degradation (DC50) was put at 112 nM. Also, the “Initial Degradation Rate” value on SMARCA2 [2] was determined as 1.9 %/min.
Regarding `Cc1ncsc1-c1ccc([C@H](C)NC(=O)[C@@H]2C[C@@H](O)CN2C(=O)[C@@H](NC(=O)Cc2ccnc(N3CCN(c4cc(-c5ccccc5O)nnc4N)CC3)c2)C(C)(C)C)cc1` [Compound 7, (2S,4R)-1-((S)-2-(2-(2-(4-(3-Amino-6-(2-hydroxyphenyl)pyridazin-4-yl)piperazin-1-yl)pyridin-4-yl)acetamido)-3,3-dimethylbutanoyl)-4-hydroxy-N-((S)-1-(4-(4-methylthiazol-5-yl)phenyl)ethyl)pyrrolidine-2-carboxamide], on SMARCA2-NanoLuc (setting [3]), the negative logarithm of the IC50 (pIC50) was 6.16. Also, the pIC50 at SMARCA2-NanoLuc (setting [4]) is 6.68. For the same compound, on SMARCA2 [1], the maximal degradation (Dmax) was 55%, the “AUC (area under the dose-response curve)” value is listed as 122 and it took 850 nM to reach half-maximal degradation (DC50). Moreover, at SMARCA2 [2], the “Initial Degradation Rate” value is given as 0.78 %/min.
